Patent US6353019B1, “Macrocyclic lactones, compositions, and methods of use” (United States of America as represented by the Department …, priority 1997, dated 2002)

Key:
[1] = tested on: M14; assay: NCI 60 cell-line screen, M14 (Melanoma); assay type: cell-based, human; conditions: averaged, quadruplicate testing, 48 h, SRB
Procedure: (§1) The NCI screen consists of a panel of 60 different human tumor cell lines against which compounds are tested over a defined range of concentrations to determine the relative degree of growth inhibition or cytotoxicity against each cell line. The design and operation of the screen is such that for each compound tested, both the absolute and relative sensitivities of individual cell lines comprising the screen are sufficiently reproducible that a characteristic profile or “fingerprint” of cellular response is generated. Compounds which are active in the NCI screen show pronounced differential tumor growth-inhibitory and/or cytotoxic effects to the diverse cell lines comprising the 60 cell-line panel. The degree of differential response between the most and least sensitive lines typically may be relatively small (e.g., 2- to 10-fold), or occasionally as great as 3-4 orders of magnitude. […]
(§2) In the screening assay, each agent is tested over a broad concentration range against every cell line in the panel. […] Test compounds are evaluated at five 10-fold dilutions. […] Optical densities are measured on automated plate readers, followed by computerized data acquisition, processing, storage, and availability for display and analysis. […]

[2] = tested on: UACC-62; assay: NCI 60 cell-line screen, UACC-62 (Melanoma); assay type: cell-based, human; conditions: averaged, quadruplicate testing, 48 h, SRB
Procedure: as §1, §2

[3] = tested on: CAKI-1; assay: NCI 60 cell-line screen, CAKI-1 (Kidney); assay type: cell-based, human; conditions: averaged, quadruplicate testing, 48 h, SRB
Procedure: as §1, §2

[4] = tested on: SN-12C; assay: NCI 60 cell-line screen, SN-12C (Kidney); assay type: cell-based, human; conditions: averaged, quadruplicate testing, 48 h, SRB
Procedure: as §1, §2

[5] = tested on: NCI-H322M; assay: NCI 60 cell-line screen, NCI-H322M (Lung); assay type: cell-based, human; conditions: averaged, quadruplicate testing, 48 h, SRB
Procedure: as §1, §2

[6] = tested on: MOLT-4; assay: NCI 60 cell-line screen, MOLT-4 (Leukemia); assay type: cell-based, human; conditions: averaged, quadruplicate testing, 48 h, SRB
Procedure: as §1, §2

[7] = tested on: MALME-3M; assay: NCI 60 cell-line screen, MALME-3M (Melanoma); assay type: cell-based, human; conditions: averaged, quadruplicate testing, 48 h, SRB
Procedure: as §1, §2

[8] = tested on: HT29; assay: NCI 60 cell-line screen, HT29 (Colon); assay type: cell-based, human; conditions: averaged, quadruplicate testing, 48 h, SRB
Procedure: as §1, §2

[9] = tested on: MCF-7-ADR-RES; assay: NCI 60 cell-line screen, MCF-7-ADR-RES (Breast); assay type: cell-based, human; conditions: averaged, quadruplicate testing, 48 h, SRB
Procedure: as §1, §2

[10] = tested on: SNB-75; assay: NCI 60 cell-line screen, SNB-75 (Brain); assay type: cell-based, human; conditions: averaged, quadruplicate testing, 48 h, SRB
Procedure: as §1, §2

[11] = tested on: NCI-H226; assay: NCI 60 cell-line screen, NCI-H226 (Lung); assay type: cell-based, human; conditions: averaged, quadruplicate testing, 48 h, SRB
Procedure: as §1, §2

[12] = tested on: SK-MEL-5; assay: NCI 60 cell-line screen, SK-MEL-5 (Melanoma); assay type: cell-based, human; conditions: averaged, quadruplicate testing, 48 h, SRB
Procedure: as §1, §2

[13] = tested on: MCF-7; assay: NCI 60 cell-line screen, MCF-7 (Breast); assay type: cell-based, human; conditions: averaged, quadruplicate testing, 48 h, SRB
Procedure: as §1, §2

[14] = tested on: UO-31; assay: NCI 60 cell-line screen, UO-31 (Kidney); assay type: cell-based, human; conditions: averaged, quadruplicate testing, 48 h, SRB
Procedure: as §1, §2

[15] = tested on: RPMI-8226; assay: NCI 60 cell-line screen, RPMI-8226 (Leukemia); assay type: cell-based, human; conditions: averaged, quadruplicate testing, 48 h, SRB
Procedure: as §1, §2

[16] = tested on: SNB-19; assay: NCI 60 cell-line screen, SNB-19 (Brain); assay type: cell-based, human; conditions: averaged, quadruplicate testing, 48 h, SRB
Procedure: as §1, §2

[17] = tested on: HCT-116; assay: NCI 60 cell-line screen, HCT-116 (Colon); assay type: cell-based, human; conditions: averaged, quadruplicate testing, 48 h, SRB
Procedure: as §1, §2

[18] = tested on: SF-539; assay: NCI 60 cell-line screen, SF-539 (Brain); assay type: cell-based, human; conditions: averaged, quadruplicate testing, 48 h, SRB
Procedure: as §1, §2

[19] = tested on: LOX-IMVI; assay: NCI 60 cell-line screen, LOX-IMVI (Melanoma); assay type: cell-based, human; conditions: averaged, quadruplicate testing, 48 h, SRB
Procedure: as §1, §2

[20] = tested on: PC-3; assay: NCI 60 cell-line screen, PC-3 (Prostate); assay type: cell-based, human; conditions: averaged, quadruplicate testing, 48 h, SRB
Procedure: as §1, §2

[21] = tested on: OVCAR-8; assay: NCI 60 cell-line screen, OVCAR-8 (Ovary); assay type: cell-based, human; conditions: averaged, quadruplicate testing, 48 h, SRB
Procedure: as §1, §2

[22] = tested on: OVCAR-4; assay: NCI 60 cell-line screen, OVCAR-4 (Ovary); assay type: cell-based, human; conditions: averaged, quadruplicate testing, 48 h, SRB
Procedure: as §1, §2

[23] = tested on: UACC-257; assay: NCI 60 cell-line screen, UACC-257 (Melanoma); assay type: cell-based, human; conditions: averaged, quadruplicate testing, 48 h, SRB
Procedure: as §1, §2

[24] = tested on: OVCAR-3; assay: NCI 60 cell-line screen, OVCAR-3 (Ovary); assay type: cell-based, human; conditions: averaged, quadruplicate testing, 48 h, SRB
Procedure: as §1, §2

[25] = tested on: ACHN; assay: NCI 60 cell-line screen, ACHN (Kidney); assay type: cell-based, human; conditions: averaged, quadruplicate testing, 48 h, SRB
Procedure: as §1, §2

[26] = tested on: IGROVI; assay: NCI 60 cell-line screen, IGROVI (Ovary); assay type: cell-based, human; conditions: averaged, quadruplicate testing, 48 h, SRB
Procedure: as §1, §2

[27] = tested on: SF-268; assay: NCI 60 cell-line screen, SF-268 (Brain); assay type: cell-based, human; conditions: averaged, quadruplicate testing, 48 h, SRB
Procedure: as §1, §2

[28] = tested on: MDA-MB-231/ATCC; assay: NCI 60 cell-line screen, MDA-MB-231/ATCC (Breast); assay type: cell-based, human; conditions: averaged, quadruplicate testing, 48 h, SRB
Procedure: as §1, §2

[29] = tested on: K-562; assay: NCI 60 cell-line screen, K-562 (Leukemia); assay type: cell-based, human; conditions: averaged, quadruplicate testing, 48 h, SRB
Procedure: as §1, §2

[30] = tested on: KM12; assay: NCI 60 cell-line screen, KM12 (Colon); assay type: cell-based, human; conditions: averaged, quadruplicate testing, 48 h, SRB
Procedure: as §1, §2

[31] = tested on: EKVX; assay: NCI 60 cell-line screen, EKVX (Lung); assay type: cell-based, human; conditions: averaged, quadruplicate testing, 48 h, SRB
Procedure: as §1, §2

[32] = Stability of compounds and extracts in solvents and media; assay type: physicochemical
Excerpt: Therefore, all subsequent attempts at isolation avoided the use of chloroform or exposure of samples to CDCl3, and no further problems with decomposition or loss of bioactivity were encountered. Moreover, there was no indication of any instability of the pure isolated compounds in any of the other common organic solvents employed, nor in aqueous or biological media. Therefore, a typical isolation and purification of the salicylihalamides from the selected crude extract is as follows.

Substance: salicylihalamide A
- negative log10 GI50 [1]: 8.92
- negative log10 GI50 [2]: 8.38
- negative log10 GI50 [3]: 8.96
- negative log10 GI50 [4]: 7.77
- negative log10 GI50 [5]: 6.72
- negative log10 GI50 [6]: 7.96
- negative log10 GI50 [7]: 7.62
- negative log10 GI50 [8]: 8.54
- negative log10 GI50 [9]: 8.07
- negative log10 GI50 [10]: 6.21
- negative log10 GI50 [11]: 8.80
- negative log10 GI50 [12]: 9.00
- negative log10 GI50 [13]: 7.12
- negative log10 GI50 [14]: 8.31
- negative log10 GI50 [15]: 7.89
- negative log10 GI50 [16]: 6.47
- negative log10 GI50 [17]: 8.74
- negative log10 GI50 [18]: 7.89
- negative log10 GI50 [19]: 9.11
- negative log10 GI50 [20]: 7.51
- negative log10 GI50 [21]: 8.43
- negative log10 GI50 [22]: 5.30
- negative log10 GI50 [23]: 8.47
- negative log10 GI50 [24]: 7.03
- negative log10 GI50 [25]: 8.01
- negative log10 GI50 [26]: 7.89
- negative log10 GI50 [27]: 7.55
- negative log10 GI50 [28]: 6.92
- negative log10 GI50 [29]: 8.41
- negative log10 GI50 [30]: 8.30
- negative log10 GI50 [31]: 7.52
- stability in deuterated chloroform (CDCl3) [32]: sensitivity
